PMC7127258 (European Journal of Medicinal Chemistry, 2013)

Experiments:
[1] = tested on: vesicular stomatitis virus (VSV); format: cell-based
interferon = conditions: rodents and cats; administered orally or intraperitoneally; cited from earlier work
renal papillae of rats = conditions: cited from earlier work

SMILES | EC50 vesicular stomatitis virus [1] | Interferon induction (interferon) | Toxicity upon chronic administration (renal papillae of rats)
CCCCCc1nc(N)[nH]c(=O)c1Br [Compound 14c, 2-Amino-5-bromo-6-pentylpyrimidin-4(3H)-one] | anti-VSV activity was not observed in HEL cell cultures |  | 
Cc1nc(N)nc(O)c1Br [Compound 6, 2-amino-5-bromo-6-methyl-4(3H)-pyrimidinone] |  | reported to induce interferon | toxicity-limiting crystal deposition in the renal papillae of rats
